Reference: US10131652B2, “Pyrimidinyloxy benzene derivatives as herbicides” (E. I. DU PONT DE NEMOURS AND COMPANY, priority 2014, dated 2018)

Tests used:
Assay in all cases: Test D pre-/postemergence plant response
Format in all cases: in vivo
[1] = system: Italian ryegrass (Lolium multiflorum); conditions: Postemergence; for Ryegrass, Italian plant response rating: 31 g ai/ha, scale 0 to 100 (0 no effect, 100 complete control); for Plant response rating, Ryegrass, Italian: scale 0 to 100, 0 no effect, 100 complete control
Procedure, shortened: (§1)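 Plants are held in a greenhouse 13 to 15 days after spraying, then injury is rated by eye relative to controls on a 0 to 100 scale. Treatments are preemergence on freshly sown loam/sand pots or postemergence at 1- to 4-leaf stage in peat-based medium; surfactant-containing solvent formulation.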

[2] = system: barnyardgrass (Echinochloa crus-galli); conditions: Postemergence; for Barnyardgrass plant response rating: scale 0 to 100 (0 no effect, 100 complete control); for Plant response rating, Barnyardgrass: scale 0 to 100, 0 no effect, 100 complete control
Procedure, shortened: as §1

[3] = system: blackgrass (Alopecurus myosuroides); conditions: Postemergence; for Blackgrass plant response rating: scale 0 to 100 (0 no effect, 100 complete control); for Plant response rating, Blackgrass: scale 0 to 100, 0 no effect, 100 complete control
Procedure, shortened: as §1

corn (Zea mays) = conditions: Postemergence; for Corn plant response rating: scale 0 to 100 (0 no effect, 100 complete control); for Plant response rating, Corn: scale 0 to 100, 0 no effect, 100 complete control
Procedure, shortened: as §1

[4] = system: galium (catchweed bedstraw, Galium aparine); conditions: Postemergence; for Galium plant response rating: 31 g ai/ha, scale 0 to 100 (0 no effect, 100 complete control); for Plant response rating, Galium: scale 0 to 100, 0 no effect, 100 complete control
Procedure, shortened: as §1

[5] = system: giant foxtail (Setaria faberii); conditions: Postemergence; for Foxtail, Giant plant response rating: scale 0 to 100 (0 no effect, 100 complete control); for Plant response rating, Foxtail, Giant: scale 0 to 100, 0 no effect, 100 complete control
Procedure, shortened: as §1

[6] = system: johnsongrass (Sorghum halepense); conditions: Postemergence; for Johnsongrass plant response rating: 31 g ai/ha, scale 0 to 100 (0 no effect, 100 complete control); for Plant response rating, Johnsongrass: scale 0 to 100, 0 no effect, 100 complete control
Procedure, shortened: as §1

[7] = system: lambsquarters (Chenopodium album); conditions: Postemergence; for Lambsquarters plant response rating: 31 g ai/ha, scale 0 to 100 (0 no effect, 100 complete control); for Plant response rating, Lambsquarters: scale 0 to 100, 0 no effect, 100 complete control
Procedure, shortened: as §1

[8] = system: large (Lg) crabgrass (Digitaria sanguinalis); conditions: Postemergence; for Crabgrass, Large plant response rating: scale 0 to 100 (0 no effect, 100 complete control); for Plant response rating, Crabgrass, Large: scale 0 to 100, 0 no effect, 100 complete control
Procedure, shortened: as §1

[9] = system: morningglory (Ipomoea coccinea); conditions: Postemergence; for Morningglory plant response rating: 31 g ai/ha, scale 0 to 100 (0 no effect, 100 complete control); for Plant response rating, Morningglory: scale 0 to 100, 0 no effect, 100 complete control
Procedure, shortened: as §1

[10] = system: oilseed rape (Brassica napus); conditions: Postemergence; for Oilseed Rape plant response rating: 31 g ai/ha, scale 0 to 100 (0 no effect, 100 complete control); for Plant response rating, Oilseed Rape: scale 0 to 100, 0 no effect, 100 complete control
Procedure, shortened: as §1

[11] = system: pigweed (Amaranthus retroflexus); conditions: Postemergence; for Pigweed plant response rating: 31 g ai/ha, scale 0 to 100 (0 no effect, 100 complete control); for Plant response rating, Pigweed: scale 0 to 100, 0 no effect, 100 complete control
Procedure, shortened: as §1

[12] = system: ragweed (common ragweed, Ambrosia elatior); conditions: Postemergence; for Ragweed plant response rating: 31 g ai/ha, scale 0 to 100 (0 no effect, 100 complete control); for Plant response rating, Ragweed: scale 0 to 100, 0 no effect, 100 complete control
Procedure, shortened: as §1

soybean (Glycine max) = conditions: Postemergence; for Soybean plant response rating: 31 g ai/ha, scale 0 to 100 (0 no effect, 100 complete control); for Plant response rating, Soybean: scale 0 to 100, 0 no effect, 100 complete control
Procedure, shortened: as §1

[13] = system: velvetleaf (Abutilon theophrasti); conditions: Postemergence; for Velvetleaf plant response rating: 31 g ai/ha, scale 0 to 100 (0 no effect, 100 complete control); for Plant response rating, Velvetleaf: scale 0 to 100, 0 no effect, 100 complete control
Procedure, shortened: as §1

[14] = system: waterhemp (common waterhemp, Amaranthus rudis); conditions: Postemergence; for Waterhemp plant response rating: 31 g ai/ha, scale 0 to 100 (0 no effect, 100 complete control); for Plant response rating, Waterhemp: scale 0 to 100, 0 no effect, 100 complete control
Procedure, shortened: as §1

[15] = system: winter wheat (Triticum aestivum); conditions: Postemergence; for Wheat plant response rating: 31 g ai/ha, scale 0 to 100 (0 no effect, 100 complete control); for Plant response rating, Wheat: scale 0 to 100, 0 no effect, 100 complete control
Procedure, shortened: as §1

[16] = system: yellow nutsedge (Cyperus esculentus); conditions: Postemergence; for Nutsedge, Yellow plant response rating: 31 g ai/ha, scale 0 to 100 (0 no effect, 100 complete control); for Plant response rating, Nutsedge, Yellow: scale 0 to 100, 0 no effect, 100 complete control
Procedure, shortened: as §1

FC(F)(Br)c1cc(-c2ccccc2Oc2ncc(Cl)cn2)no1 [Compound 162]
Ryegrass, Italian plant response rating [1]: 0
Plant response rating, Ryegrass, Italian ([1]; 62 g ai/ha): 5
Plant response rating, Ryegrass, Italian ([1]; 125 g ai/ha): 5
Barnyardgrass plant response rating ([2]; 16 g ai/ha): 5
Barnyardgrass plant response rating ([2]; 31 g ai/ha): 10
Plant response rating, Barnyardgrass ([2]; 62 g ai/ha): 15
Plant response rating, Barnyardgrass ([2]; 125 g ai/ha): 15
Blackgrass plant response rating ([3]; 16 g ai/ha): 0
Blackgrass plant response rating ([3]; 31 g ai/ha): 30
Plant response rating, Blackgrass ([3]; 62 g ai/ha): 30
Plant response rating, Blackgrass ([3]; 125 g ai/ha): 45
Corn plant response rating (corn (Zea mays); 16 g ai/ha): 5
Corn plant response rating (corn (Zea mays); 31 g ai/ha): 5
Plant response rating, Corn (corn (Zea mays); 62 g ai/ha): 5
Plant response rating, Corn (corn (Zea mays); 125 g ai/ha): 5
Galium plant response rating [4]: 60
Plant response rating, Galium ([4]; 62 g ai/ha): 60
Plant response rating, Galium ([4]; 125 g ai/ha): 80
Foxtail, Giant plant response rating ([5]; 16 g ai/ha): 10
Foxtail, Giant plant response rating ([5]; 31 g ai/ha): 10
Plant response rating, Foxtail, Giant ([5]; 62 g ai/ha): 10
Plant response rating, Foxtail, Giant ([5]; 125 g ai/ha): 20
Johnsongrass plant response rating [6]: 5
Plant response rating, Johnsongrass ([6]; 62 g ai/ha): 10
Plant response rating, Johnsongrass ([6]; 125 g ai/ha): 20
Lambsquarters plant response rating [7]: 65
Plant response rating, Lambsquarters ([7]; 62 g ai/ha): 75
Plant response rating, Lambsquarters ([7]; 125 g ai/ha): 95
Crabgrass, Large plant response rating ([8]; 16 g ai/ha): 5
Crabgrass, Large plant response rating ([8]; 31 g ai/ha): 5
Plant response rating, Crabgrass, Large ([8]; 62 g ai/ha): 10
Plant response rating, Crabgrass, Large ([8]; 125 g ai/ha): 20
Morningglory plant response rating [9]: 65
Plant response rating, Morningglory ([9]; 62 g ai/ha): 75
Plant response rating, Morningglory ([9]; 125 g ai/ha): 75
Oilseed Rape plant response rating [10]: 5
Plant response rating, Oilseed Rape ([10]; 62 g ai/ha): 40
Pigweed plant response rating [11]: 90
Plant response rating, Pigweed ([11]; 62 g ai/ha): 100
Plant response rating, Pigweed ([11]; 125 g ai/ha): 100
Ragweed plant response rating [12]: 30
Plant response rating, Ragweed ([12]; 62 g ai/ha): 40
Plant response rating, Ragweed ([12]; 125 g ai/ha): 50
Soybean plant response rating (soybean (Glycine max)): 10
Plant response rating, Soybean (soybean (Glycine max); 62 g ai/ha): 40
Plant response rating, Soybean (soybean (Glycine max); 125 g ai/ha): 50
Velvetleaf plant response rating [13]: 40
Plant response rating, Velvetleaf ([13]; 62 g ai/ha): 75
Waterhemp plant response rating [14]: 98
Plant response rating, Waterhemp ([14]; 62 g ai/ha): 100
Plant response rating, Waterhemp ([14]; 125 g ai/ha): 100
Wheat plant response rating [15]: 0
Plant response rating, Wheat ([15]; 62 g ai/ha): 5
Plant response rating, Wheat ([15]; 125 g ai/ha): 5
Nutsedge, Yellow plant response rating [16]: 0
Plant response rating, Nutsedge, Yellow ([16]; 62 g ai/ha): 5
Plant response rating, Nutsedge, Yellow ([16]; 125 g ai/ha): 10

CC(F)(F)c1cc(-c2ccccc2Oc2ncc(Br)cn2)no1 [Compound 149]
Ryegrass, Italian plant response rating [1]: 0
Plant response rating, Ryegrass, Italian ([1]; 62 g ai/ha): 0
Plant response rating, Ryegrass, Italian ([1]; 125 g ai/ha): 0
Barnyardgrass plant response rating ([2]; 16 g ai/ha): 5
Barnyardgrass plant response rating ([2]; 31 g ai/ha): 5
Plant response rating, Barnyardgrass ([2]; 62 g ai/ha): 5
Plant response rating, Barnyardgrass ([2]; 125 g ai/ha): 10
Blackgrass plant response rating ([3]; 16 g ai/ha): 0
Blackgrass plant response rating ([3]; 31 g ai/ha): 0
Plant response rating, Blackgrass ([3]; 62 g ai/ha): 0
Plant response rating, Blackgrass ([3]; 125 g ai/ha): 30
Corn plant response rating (corn (Zea mays); 16 g ai/ha): 0
Corn plant response rating (corn (Zea mays); 31 g ai/ha): 5
Plant response rating, Corn (corn (Zea mays); 62 g ai/ha): 5
Plant response rating, Corn (corn (Zea mays); 125 g ai/ha): 5
Galium plant response rating [4]: 60
Plant response rating, Galium ([4]; 62 g ai/ha): 70
Plant response rating, Galium ([4]; 125 g ai/ha): 95
Foxtail, Giant plant response rating ([5]; 16 g ai/ha): 5
Foxtail, Giant plant response rating ([5]; 31 g ai/ha): 10
Plant response rating, Foxtail, Giant ([5]; 62 g ai/ha): 10
Plant response rating, Foxtail, Giant ([5]; 125 g ai/ha): 30
Johnsongrass plant response rating [6]: 10
Plant response rating, Johnsongrass ([6]; 62 g ai/ha): 15
Plant response rating, Johnsongrass ([6]; 125 g ai/ha): 10
Lambsquarters plant response rating [7]: 70
Plant response rating, Lambsquarters ([7]; 62 g ai/ha): 80
Plant response rating, Lambsquarters ([7]; 125 g ai/ha): 85
Crabgrass, Large plant response rating ([8]; 16 g ai/ha): 5
Crabgrass, Large plant response rating ([8]; 31 g ai/ha): 5
Plant response rating, Crabgrass, Large ([8]; 62 g ai/ha): 10
Plant response rating, Crabgrass, Large ([8]; 125 g ai/ha): 15
Morningglory plant response rating [9]: 60
Plant response rating, Morningglory ([9]; 62 g ai/ha): 70
Plant response rating, Morningglory ([9]; 125 g ai/ha): 80
Oilseed Rape plant response rating [10]: 30
Plant response rating, Oilseed Rape ([10]; 62 g ai/ha): 60
Plant response rating, Oilseed Rape ([10]; 125 g ai/ha): 85
Pigweed plant response rating [11]: 85
Plant response rating, Pigweed ([11]; 62 g ai/ha): 95
Plant response rating, Pigweed ([11]; 125 g ai/ha): 90
Ragweed plant response rating [12]: 30
Plant response rating, Ragweed ([12]; 62 g ai/ha): 30
Plant response rating, Ragweed ([12]; 125 g ai/ha): 45
Soybean plant response rating (soybean (Glycine max)): 40
Plant response rating, Soybean (soybean (Glycine max); 62 g ai/ha): 65
Plant response rating, Soybean (soybean (Glycine max); 125 g ai/ha): 65
Velvetleaf plant response rating [13]: 30
Plant response rating, Velvetleaf ([13]; 62 g ai/ha): 40
Plant response rating, Velvetleaf ([13]; 125 g ai/ha): 65
Waterhemp plant response rating [14]: 80
Plant response rating, Waterhemp ([14]; 62 g ai/ha): 95
Plant response rating, Waterhemp ([14]; 125 g ai/ha): 100
Wheat plant response rating [15]: 0
Plant response rating, Wheat ([15]; 62 g ai/ha): 0
Plant response rating, Wheat ([15]; 125 g ai/ha): 10
Nutsedge, Yellow plant response rating [16]: 0
Plant response rating, Nutsedge, Yellow ([16]; 62 g ai/ha): 5
Plant response rating, Nutsedge, Yellow ([16]; 125 g ai/ha): 5
